The values below come from ChEMBL document CHEMBL2029292, “Identification of novel adenosine A(2A) receptor antagonists by virtual screening” (J Med Chem, 2012).

In assay [1] the target is Adenosine receptor A2a (Homo sapiens, UniProt P29274). As to the kind of experiment: Displacement of [3H]ZM241385 from human A2A receptor expressed in HEK293 cells after 1 hr by liquid scintillation counting. The format is cell-based. For orientation: Displacement assays read how much labelled ligand stays bound in the presence of the test substance.
Sequence of Adenosine receptor A2a (P29274 whole entry): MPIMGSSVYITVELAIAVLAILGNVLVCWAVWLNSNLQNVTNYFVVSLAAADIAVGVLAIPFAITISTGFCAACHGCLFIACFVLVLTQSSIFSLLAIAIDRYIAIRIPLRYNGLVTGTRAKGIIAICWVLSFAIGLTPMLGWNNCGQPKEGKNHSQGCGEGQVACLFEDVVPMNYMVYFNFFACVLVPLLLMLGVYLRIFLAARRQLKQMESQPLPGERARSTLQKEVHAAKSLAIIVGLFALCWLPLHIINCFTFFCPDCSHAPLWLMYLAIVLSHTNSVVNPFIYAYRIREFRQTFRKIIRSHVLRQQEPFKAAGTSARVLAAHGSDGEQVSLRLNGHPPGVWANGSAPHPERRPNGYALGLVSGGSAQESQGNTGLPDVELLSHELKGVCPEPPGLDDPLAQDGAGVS
Assay [2] concerns HEK293. As to the kind of experiment: Selectivity ratio of Ki for human A1 receptor expressed in CHO cells to Ki for human A2A receptor expressed in HEK293 cells. It is filed as cell-based.

For orientation: Ki means a measure of affinity in units of concentration, obtained from inhibition or displacement. Read a low Ki as tighter binding. `Nc1cccc(CC2SC(=O)NC2=O)c1` (stereo unspecified) showed a Ki in assay [1] of 7080 nM.
As to `Cc1ccsc1/C=C/c1nc(N)nc(-c2ccccc2O)n1`, in assay [2], the Ratio Ki was found to be 9.5. This compound also had a Ki in assay [1] of 3.47 nM.
In the case of `CC1CC(c2ccccc2)n2nc(N3C(=O)C4CC=CCC4C3=O)nc2N1` (stereo unspecified), in assay [1], the Ki is 2000 nM.
The same measure, in the same setting: the same measure for `Cc1csc(-c2coc3cc(OCC(=O)O)cc(C)c3c2=O)n1`: 2240 nM.
Turning to `CC(C)c1nc(N)nc(-c2ccccc2O)n1`, in assay [2], the Ratio Ki was found to be 37. Besides, in assay [1], the affinity, expressed as Ki, was 12.3 nM.
`CC(=O)Oc1cc(C)c2c(=O)c(-c3nc(C)cs3)coc2c1`: the Ratio Ki in assay [2] worked out at 13. Moreover, in assay [1], the Ki was 33.9 nM.
`CSc1nc2nc3c(c(O)n2n1)CN(Cc1ccccc1)CC3` showed a Ki in assay [1] of 708 nM.
For the compound `CN1CCN(C(=O)c2cccc(-c3nc(N)nc(-c4ccccc4O)n3)c2)CC1`, the Ratio Ki in assay [2] is 59. Moreover, the Ki in assay [1] was 1.02 nM.
In the case of `COc1ccc(N2CC(C(=O)NC(Cc3ccccc3)C(=O)O)CC2=O)cc1` (stereo unspecified), the affinity in assay [1] corresponds to a Ki of 2950 nM.
In turn, `O=C(c1ccc(F)cc1)c1c[nH]c(C(=O)NCCCn2ccnc2)c1` had an inhibitory constant (Ki) in assay [1] of 4680 nM.
On the same count and under the same terms, next, `Cc1cc(O)c(C(C)C)cc1N=C1CSC(=O)N1`: 1780 nM; `COCCN1C(=O)c2[nH]nc(-c3ccccc3O)c2C1c1ccc(F)cc1` (stereo unspecified): 1230 nM.
`COC1CCN(c2cccc(-c3nc(N)nc(-c4ccccc4O)n3)c2)CC1`: in assay [2], the Ratio Ki worked out at 19. Moreover, the Ki in assay [1] was 1.58 nM.
The like results for `CCc1cc2c(=O)c(-c3nc(C)cs3)coc2cc1OCC(=O)OC(C)C` were, in that order, greater than 100 and 15.1 nM.
For `NC(c1csc(Nc2nncc3ccccc23)n1)c1ccccc1Cl` (stereo unspecified), in assay [1], the affinity, expressed as Ki, was 2400 nM.
